Earlier results as cited in US4756118A, “Method and apparatus for the destruction of imported fire ants of the genus Solenopsis” (priority 1986, dated 1988).

What was measured:
[1] = system: Imported Fire Ant; settings: poison bait
[2] = relative to pyrethrum

Row | SMILES | Acute Oral LD50 | effectiveness in Imported Fire Ant control [1] | times more effective than pyrethrum [2] [times]
1 | ClC1(Cl)C2(Cl)C3(Cl)C4(Cl)C(Cl)(Cl)C5(Cl)C3(Cl)C1(Cl)C5(Cl)C24Cl (centres unmarked) [Mirex, dodecachloroocta-hydro-1,3,4-metheno-2H-cyclobuta(cd)pentalene] | 306 mg/kg | most effective chemical control agent | 
2 | CC(C)=CC1C(C(=O)OCc2coc(Cc3ccccc3)c2)C1(C)C (centres unmarked) [Resmethrin, [5-(phenylmethyl)-3-furanyl]methyl 2,2-dimethyl-3-(2-methyl-1-propenyl)cyclopropanecarboxylate] | 4,420 mg./kg. |  | ~20
3 | CC1(C)CNC(=NN=C(C=Cc2ccc(C(F)(F)F)cc2)C=Cc2ccc(C(F)(F)F)cc2)NC1 [Amdro] |  | very limited in its effectiveness | 
